Experimental data taken from patent US8093025B2, “Bacterial vector” (Helmholtz-Zentrum fuer Infektionsforschung GmbH, priority 2004, dated 2012).

Tests used:
[1] = system: CT26 tumor; experiment: In vivo colonization and luciferase transgene induction in CT26 tumor-bearing mice; parameters: species or system Balb/c mice
From the text: As a representative for a transgene, the luciferase gene from the firefly Photinus pyralis was used as the reporter gene. As the saccharide inducible promoter element, PBAD from the L-arabinose operon of E. coli was functionally linked to the luciferase gene, the promoter element further being in conjunction with the structural gene for its regulator protein araC under the control of its natural own promoter (PC). The bacterial vector was generated by transforming Salmonella enterica serovar Typhimurium, vaccine strain SL7207, with the plasmid containing the transgene under the control of the saccharide inducible promoter by electroporation.
As an example for an animal having a tumor, Balb/c mice were subcutaneously inoculated abdominally with 10^6 cells of the colon adenocarcinoma cell line CT26. After this tumor generation treatment, mice bearing tumors of approximately 400-600 mm^3 were intravenously injected with 5×10^6 bacteria of the above bacterial vector (SL7207[pHL259]), representing the first component of the pharmaceutical combination, suspended in phosphate buffered saline (PBS). Three days post infection, L-arabinose as the appropriate inductor saccharide, representing the second component of the pharmaceutical combination, was administered intraperitoneally, dissolved in PBS. Subsequently, mice were sacrificed and the tumors, spleens and livers dissected, then transferred into 3 mL of sterile, ice-cold PBS containing 0.1% (vol/vol) Triton X-100.
Tissues were disrupted in a Polytron PG3000 homogenizer (Kinematica, Littau, Switzerland). Homogenates were diluted in PBS and streaked on medium plates with selective antibiotic (ampicillin). Colonies were counted after incubation of plates. As a result, the number of bacteria in respective tissues could be calculated by counting the resulting colony forming units (cfu) for each organ.
The induction of the transgene was determined by measurement of the reporter gene (luciferase) activity from tissue homogenates after dilution (1:1) in 2× luciferase assay lysis buffer (50 mM tris-HCl, 4 mM DTT, 20% (vol/vol) glycerol, 2% (vol/vol) Triton X-100, 2 mg/mL lysozyme, pH 8.3), incubation at 25° C. for 10 minutes, centrifugation at 3,000×g for 3 minutes, 10 μL supernatant were added to 100 mL LARII reagent of the luciferase assay system according to the manufacturer's instructions (Promega, Mannheim, Germany). Luminescence intensity was measured spectrometrically in a luminometer (Lumat LB9507, Berthold, Pforzheim, Germany). Dilution was taken into account when calculating RLU per organ.

[2] = system: PBAD; experiment: Induction of plasmid replication in bacterial vector within infected J774A1 cells (GFP read-out); assay type: cell-based, murine; conditions: SL7207[pAEN17] in J774A1 cells, L-arabinose 4 mM, 40 mM, 400 mM, 3 hours
Experimental: J774A1 cells, a murine macrophage cell line, were infected with strain SL7207[pAEN17], as described in Example 2. 4 hours after infection, different amounts of L-arabinose were added into individual wells of infected J774A1 cells up to a concentration in the medium of 4 mM, 40 mM and 400 mM, respectively. 3 hours after addition of L-arabinose cells were treated with 0.25% Triton X-100. Bacteria in the lysates were monitored for GFP expression by flow cytometry as described in Example 2. The analytical results are depicted in FIG. 7, with unspecific background fluorescence substracted.

[3] = system: SL7207 bearing the plasmid of FIG. 8; experiment: Induced lysis (gene E) of bacterial vector within infected J774A1 cells, CFU; assay type: cell-based, Salmonella enterica serovar Typhimurium; conditions: SL7207 with gene E plasmid pHL241, induction period 3 hours
Experimental: The plasmid pHL241 shown in FIG. 8 was derived from plasmid pHL238 shown in FIG. 1 by exchanging gene gfp against gene E.
For infection, J774A1 cells were cultured and infected with SL7207 bearing the plasmid of FIG. 8 according to the procedure of Example 2. Induction was by addition of L-arabinose to the final concentrations in cell culture medium as given in FIG. 9, for an induction period of 3 hours. Following induction, cells were harvested and lysed by addition of Triton X-100 to a concentration of 1 g/L. For re-isolation, intracellular bacterial vectors were plated on LB-agar containing ampicillin for quantification of viable bacteria as colony forming units (CFU).

[4] = system: PBAD; experiment: GFP expression from plasmid pHL238 in bacterial culture after induction, flow cytometry; assay type: cell-based, Salmonella enterica serovar Typhimurium; conditions: induction by L-arabinose, vector SL7207[pHL238]
From the text: As an example for a structural gene, plasmid pHL238 (schematically depicted in FIG. 1) comprising the structural gene for green fluorescent protein (GFP) under the control of PBAD was cloned, further comprising the structural gene for the regulator of PBAD, araC under the control of its own promoter Pc, along with the Ampicillin resistance gene as a selection marker, and a high copy number origin of replication from pUC. Regulatory elements originate from plasmid pBAD18 (Guzman et al., J. Bacteriol. 1995 July; 177(14):4121-30)
This bacterial vector is based on Salmonella enterica serovar Typhimurium, strain SL7207, which is a known attenuated invasive salmonella strain in use for experimental vaccination. The salmonella strain was transformed with plasmid pHL238 by electroporation, transformed colonies were selected on LB-medium agar plates containing streptomycin at 30 μg/mL and ampicillin at 100 μg/mL. The resultant transformed strain was bacterial vector SL7207[pHL238]. […] Results are shown in FIG. 2, the thick line for addition of L-arabinose, the thin line without L-arabinose.

[5] = system: PBAD; experiment: GFP expression from bacterial vector within infected J774A1 cells, two colour flow cytometry; assay type: cell-based, murine; conditions: SL7207[pHL238] in J774A1 cells, L-arabinose 4 mM, 40 mM, 400 mM in medium, 3 hours
Experimental: The murine macrophage cell line J774A1 was infected with bacterial vector SL7207[pHL238] of Example 1. Before infection, cells were seeded to 2×10^6 cells per well in a 6-well plate in antibiotic-free medium (IMDM with 10% inactivated fetal calf serum, 2 mM glutamine) and grown for one day in a 5% CO2 atmosphere at 37° C. For infection, SL7207[pHL238] were grown from a glycerol stock overnight at 37° C. on a LB plate supplemented with antibiotics, followed by cultivation in liquid LB medium supplemented with antibiotics for approximately 2 hours at 37° C., shaking at 60 rpm. Bacteria were harvested by centrifugation, washed in PBS, resuspended in cell culture medium and added at a ˜MOI of 10. 30 min after start of infection cells were washed twice with PBS before medium containing gentamycin (50 μg/mL) was added to kill extracellular bacteria. […] GFP expressing bacteria in the lysates were monitored by flow cytometry. In order to differentiate fluorescence of GFP expressing bacteria from autofluorescent cell fragments the so-called two colour flow cytometry method was used (Bumann, Infect. Immun. (2001) 69, 4618-4626.). The analytical results are depicted in FIG. 3, with unspecific background fluorescence substracted. […]

[6] = system: CT26 tumor; experiment: Vector with gene E under Prha and lux under PBAD plus TNFalpha in CT26 tumor mice; assay type: in vivo, Balb/c mice
From the text: As an example for multifunctional bacterial vectors for use in the pharmaceutical combination according to the invention, vaccine strain SL7207 was genetically manipulated by Tn7 mediated chromosomal integration of the mini-transposon of a plasmid pHL260b, modified from pHL260a by replacing the PBAD promoter by the L-rhamnose inducible promoter (Prha), derived from plasmid pJOE2702 (Stumpp et al., Biospektrum 6, 33-36(2000)). This strain chromosomally contains at least one copy of gene E of bacteriophage phiX174 under the control of the rhamnose inducible promoter (Prha). The resultant strain was then transformed with plasmid pTNFa-lux, containing the bioluminescence operon of Photorhabdus luminescence under control of the PBAD promoter in combination with the mouse TNFalpha gene under the control of the constitutive promoter from beta-lactamase (Pbla).
As described in Example 8, Balb/c mice bearing a CT26 tumor were administered 5×10^6 bacterial vector, suspended in PBS by intravenous administration. […] Upon administration of 120 mg L-arabinose dissolved in PBS intraperitoneally, to the same mice 1 day later, as well as on consecutive days, colonization of tumor tissue by bacterial vectors was monitored by spectrometry, more specifically luminometric analysis of anesthesized mice using a CCD camera.

[7] = system: PBAD; experiment: In vivo GFP expression from bacterial vector re-isolated from spleen of infected mice; parameters: species or system Balb/c mice; conditions: SL7207[pHL238] i.v., L-arabinose i.v. after 2 days, spleen 4 hours later
Experimental: Balb/c mice were infected intravenously with a dose of ca. 5×10^6 bacteria in PBS of bacterial vector SL7207[pHL238]. After 2 days, different amounts of L-arabinose dissolved in PBS were administered intravenously into mice. 4 hours after L-arabinose administration mice were sacrificed, spleens were removed, homogenized in PBS containing 0.1% Triton X-100 and lysates were analyzed by two colour flow cytometry.

[8] = system: PBAD; experiment: In vitro regulation of copy number of plasmid pAEN17 (GFP read-out) in bacterial culture; assay type: cell-based, Salmonella enterica serovar Typhimurium; conditions: addition of L-arabinose, trfA under PBAD acting on oriV
From the text: In the absence of L-arabinose, just one copy of this plasmid per bacterial cell is maintained, regulated by the origin of replication derived from the F plasmid of Escherichia coli. In addition, this plasmid contains the inducible origin of replication of plasmid RK2, namely oriV. The replicase gene trfA, acting on this origin, is placed under the control of PBAD, as an example for a saccharide inducible promoter.
In order to allow for a convenient analysis of plasmid replication, GFP was placed under control of the weak constitutive Pbla promoter derived from the bla gene, also contained on said vector. The recombinant strain SL7207[pAEN17] was grown into logarithmic phase and either no or 0.1% L-Arabinose was added into bacterial cultures.

Row | Structure (SMILES) | induction of transgene expression (luciferase, RLU) ([1]; L-arabinose i.p. three days post infection, tumor, spleen, liver) | transgene activity in spleen and liver ([1]; spleen and liver) | time of main transgene activity past administration of the inductor saccharide ([1]; tumor tissue) | absolute transgene activity, comparison of tissues ([1]; tumor, spleen, liver) | fluorescence intensity of GFP [2] | number of viable bacterial vectors inside infected J774A1 cells (CFU) [3] | GFP fluorescence relative to background without induction [4] | fluorescence intensity of GFP [5] | bioluminescence from lux operon under PBAD ([6]; 120 mg L-arabinose i.p., repeated administration after L-rhamnose) | expression of GFP by bacteria recovered from infected animals [7] | copy number of the plasmid pAEN17 [8] | lysis of bacterial vector and release of TNFalpha ([6]; 120 mg L-rhamnose i.p. 3 days after vector i.v.)
1 | O=C[C@H](O)[C@@H](O)[C@@H](O)CO [L-arabinose] | induces transgene expression for all tissues tested | very low to about background levels | about 6 hours | greatest in tumor tissue | increases with increasing concentrations of L-arabinose | drastically decreases the number of viable bacterial vectors | more than two orders above the background fluorescence | increases with increasing concentrations of L-arabinose | bioluminescence | induced by L-Arabinose in a dose-dependent manner | increased copy number | 
2 | C[C@H](O)[C@H](O)[C@@H](O)[C@@H](O)C=O [L-rhamnose] |  |  |  |  |  |  |  |  |  |  |  | lysis of bacterial vector and release of TNFalpha was observed
